The target of assay [1] is T1, HLA-A02.01 (Homo sapiens, UniProt P04439, D140Y/D185E/D98H/E176V/E277Q/G131W/G231S/I119V/I121R/I166T/I218V/N151K/N90K/P208A/P217A/Q86G/Q94H/R138H/R169H).
T1 construct: made in house; host or cells: E. coli
Kind of assay: Class I MHC peptide binding stability (pMHC-I dissociation, 125I-labeled light chain). The settings on record: allele A02.01.

The target of assay [2] is HLA-A03.01 (Homo sapiens, UniProt P04439). The assay is described as follows: Class I MHC peptide binding affinity (displacement of radiolabeled reference peptide). The conditions noted are these: allele A03.01; read-out: Observed Affinity (IC50; (nM)).
For assay [3], the target named is HLA-A24.02. Described as above. The conditions noted are these: allele A24.02; read-out: Observed Affinity (IC50; (nM)). Also noted: species or system human.
The target in assay [4] is HLA-A02.01 (Homo sapiens, UniProt P04439, D140Y/D185E/D98H/E176V/E277Q/G131W/G231S/I119V/I121R/I166T/I218V/L300P/L318F/N151K/N90K/P208A/P217A/Q86G/Q94H/R138H/R169H/T345S). The description is as above. The conditions noted are these: allele A02.01; read-out: Observed Affinity (IC50; (nM)). Summed up: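 MHC class I complexes were loaded with a radiolabeled reference peptide, then exposed to test peptides over a range of concentrations for 2 days. Reference peptide still bound to the complexes was quantified by size-exclusion gel filtration.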

Where a SMILES comes first, the peptide text is derived from it.

This note sets out measurements from patent US20220282217A1, “COMPOSITIONS AND METHODS FOR PREPARING T CELL COMPOSITIONS AND USES THEREOF” (priority 2019, published 2022).

A word on the IC50: it is the concentration needed to halve the response being measured.

On to `CC(C)C[C@H](NC(=O)[C@@H](N)CCCNC(=N)N)C(=O)N[C@@H](CO)C(=O)N[C@@H](CO)C(=O)N[C@@H](CS)C(=O)N[C@H](C(=O)N1CCC[C@H]1C(=O)N[C@H](C(=O)N[C@@H](C)C(=O)O)C(C)C)C(C)C`, for which the “Stability (T1/2 (h))” value in assay [1] is on record as 18.7 h. The IC50 in assay [2] was determined as 439 nM.

In the case of `CC[C@H](C)[C@H](NC(=O)[C@H](Cc1ccc(O)cc1)NC(=O)[C@H](CS)NC(=O)[C@H](Cc1ccccc1)NC(=O)[C@@H](N)Cc1ccccc1)C(=O)N[C@@H](CC(C)C)C(=O)N[C@@H](CC(N)=O)C(=O)N[C@H](C(=O)N[C@@H](CCSC)C(=O)N[C@@H](Cc1ccccc1)C(=O)O)[C@@H](C)O` (H-FFCYILNTMF-OH; N-terminus and C-terminus assumed), the IC50 in assay [3] amounted to 73.4 nM.

Consider `CC(C)C[C@H](NC(=O)[C@H](CS)NC(=O)[C@H](CO)NC(=O)[C@H](Cc1ccccc1)NC(=O)[C@H](CC(C)C)NC(=O)[C@H](CCCCN)NC(=O)[C@H](Cc1ccccc1)NC(=O)CN)C(=O)N[C@@H](CO)C(=O)N[C@@H](Cc1ccccc1)C(=O)O` (H-GFKLFSCLSF-OH; N-terminus and C-terminus assumed), for which the IC50 in assay [3] came to 643 nM.

With `CC(C)C[C@H](NC(=O)[C@H](CC(C)C)NC(=O)[C@H](CCC(=O)O)NC(=O)[C@@H]1CCCN1C(=O)[C@H](Cc1ccccc1)NC(=O)[C@@H](N)CCCCN)C(=O)N[C@@H](CS)C(=O)N[C@H](C(=O)N[C@@H](Cc1c[nH]c2ccccc12)C(=O)O)C(C)C` (H-KFPELLCVW-OH; N-terminus and C-terminus assumed), the IC50 in assay [3] was 13.7 nM.

For `CC(C)C[C@H](NC(=O)[C@H](Cc1ccccc1)NC(=O)[C@H](CO)NC(=O)[C@H](CC(C)C)NC(=O)[C@H](CS)NC(=O)[C@H](CO)NC(=O)[C@H](Cc1ccccc1)NC(=O)[C@H](CC(C)C)NC(=O)[C@@H](N)CCCCN)C(=O)N[C@@H](CO)C(=O)O` (H-KLFSCLSFLS-OH; N-terminus and C-terminus assumed), the IC50 in assay [2] stood at 104 nM; in assay [4], 0.6 nM.

Turning to `CC[C@H](C)[C@H](NC(=O)[C@H](Cc1c[nH]c2ccccc12)NC(=O)[C@H](CC(C)C)NC(=O)[C@@H]1CCCN1C(=O)[C@H](CO)NC(=O)[C@H](CCCNC(=N)N)NC(=O)[C@H](CC(C)C)NC(=O)[C@@H](N)CCCCN)C(=O)N[C@@H](Cc1ccccc1)C(=O)O` (H-KLRSPLWIF-OH; N-terminus and C-terminus assumed), in assay [3], the IC50 was determined as 828 nM.

Consider `CSCC[C@H](NC(=O)[C@H](CCC(=O)O)NC(=O)[C@H](CC(C)C)NC(=O)[C@H](CC(C)C)NC(=O)[C@H](CC(C)C)NC(=O)CNC(=O)[C@H](Cc1ccc(O)cc1)NC(=O)[C@@H](N)CC(C)C)C(=O)N[C@@H](CC(C)C)C(=O)O` (H-LYGLLLEML-OH; N-terminus and C-terminus assumed), for which the IC50 in assay [3] worked out at 0.8 nM.

Take `CC[C@H](C)[C@H](NC(=O)[C@H](Cc1ccc(O)cc1)NC(=O)[C@@H](N)CC(C)C)C(=O)N[C@H](C(=O)N[C@@H](C)C(=O)N[C@@H](Cc1ccccc1)C(=O)N[C@@H](Cc1ccccc1)C(=O)N[C@@H](Cc1ccccc1)C(=O)N[C@@H](CS)C(=O)N[C@@H](Cc1c[nH]c2ccccc12)C(=O)O)[C@@H](C)O` (H-LYITAFFFCW-OH; N-terminus and C-terminus assumed): in assay [3], the IC50 came out at 45.3 nM.

As to `CC[C@H](C)[C@H](NC(=O)[C@H](Cc1ccc(O)cc1)NC(=O)[C@@H](N)CC(C)C)C(=O)N[C@H](C(=O)N[C@@H](C)C(=O)N[C@@H](Cc1ccccc1)C(=O)N[C@@H](Cc1ccccc1)C(=O)N[C@@H](CC(C)C)C(=O)N[C@@H](CC(C)C)C(=O)O)[C@@H](C)O` (H-LYITAFFLL-OH; N-terminus and C-terminus assumed), the IC50 in assay [3] stood at 0.1 nM.

Consider `CC[C@H](C)[C@H](NC(=O)[C@H](Cc1ccc(O)cc1)NC(=O)[C@@H](N)CC(C)C)C(=O)N[C@H](C(=O)N[C@@H](C)C(=O)N[C@@H](Cc1ccccc1)C(=O)N[C@@H](Cc1ccccc1)C(=O)N[C@@H](CC(C)C)C(=O)N[C@@H](CC(C)C)C(=O)N[C@@H](CC(=O)O)C(=O)O)[C@@H](C)O` (H-LYITAFFLLD-OH; N-terminus and C-terminus assumed), for which, in assay [3], the IC50 stood at 0.4 nM.

Consider `CC[C@H](C)[C@H](NC(=O)[C@H](CCCCN)NC(=O)[C@H](CO)NC(=O)[C@H](CCC(=O)O)NC(=O)[C@H](C)NC(=O)[C@H](CCCCN)NC(=O)[C@H](CC(C)C)NC(=O)[C@H](Cc1ccccc1)NC(=O)[C@@H](N)CCSC)C(=O)O` (H-MFLKAESKI-OH; N-terminus and C-terminus assumed), for which the IC50 in assay [3] worked out at 332 nM.

As to `CC(C)C[C@H](NC(=O)[C@@H](NC(=O)[C@H](CO)NC(=O)[C@H](CO)NC(=O)[C@H](CC(C)C)NC(=O)[C@@H](N)CCCNC(=N)N)C(C)C)C(=O)N[C@@H](CCC(N)=O)C(=O)N[C@@H](CCCNC(=N)N)C(=O)N[C@@H](Cc1ccccc1)C(=O)O` (H-RLSSVLQRF-OH; N-terminus and C-terminus assumed), the IC50 in assay [3] came out at 28.2 nM.

As to `CC(C)[C@H](NC(=O)[C@@H](N)CCCNC(=N)N)C(=O)N[C@@H](CC(N)=O)C(=O)N[C@H](C(=O)N[C@@H](C)C(=O)N[C@@H](Cc1c[nH]c2ccccc12)C(=O)N[C@@H](CCCCN)C(=O)N[C@H](C(=O)N[C@@H](CCCCN)C(=O)N[C@@H](CCCCN)C(=O)O)[C@@H](C)O)[C@@H](C)O` (H-RVNTAWKTKK-OH; N-terminus and C-terminus assumed), the half-maximal inhibitory concentration (IC50) in assay [2] turned out to be 2.3 nM.

Consider `CC(C)C[C@H](NC(=O)[C@H](C)NC(=O)[C@@H]1CCCN1C(=O)[C@@H](NC(=O)[C@H](CCCCN)NC(=O)[C@H](CCCCN)NC(=O)[C@H](CC(C)C)NC(=O)[C@@H](N)CO)C(C)C)C(=O)N[C@@H](CCCCN)C(=O)N[C@@H](CCCCN)C(=O)O` (H-SLKKVPALKK-OH; N-terminus and C-terminus assumed), for which the IC50 in assay [2] worked out at 9.6 nM.

Consider `CC(C)C[C@H](NC(=O)[C@@H](N)CO)C(=O)N[C@@H](CCC(N)=O)C(=O)N1CCC[C@H]1C(=O)N1CCC[C@H]1C(=O)N1CCC[C@H]1C(=O)N1CCC[C@H]1C(=O)NCC(=O)N[C@@H](Cc1ccccc1)C(=O)N[C@@H](CCCCN)C(=O)O` (H-SLQPPPPGFK-OH; N-terminus and C-terminus assumed), for which the IC50 in assay [2] amounted to 19 nM.

Regarding `CC(C)C[C@H](NC(=O)[C@@H](N)[C@@H](C)O)C(=O)N[C@@H](CC(N)=O)C(=O)N[C@@H](CO)C(=O)N1CCC[C@H]1C(=O)N1CCC[C@H]1C(=O)N[C@@H](CC(C)C)C(=O)N[C@@H](CCCCN)C(=O)N[C@@H](CCCCN)C(=O)O` (H-TLNSPPLKK-OH; N-terminus and C-terminus assumed), the half-inhibitory concentration (IC50) in assay [2] was 5.4 nM.

In the case of `CC(C)C[C@H](NC(=O)[C@@H](NC(=O)[C@@H](N)[C@@H](C)O)[C@@H](C)O)C(=O)N[C@@H](CC(N)=O)C(=O)N[C@@H](CO)C(=O)N1CCC[C@H]1C(=O)N1CCC[C@H]1C(=O)N[C@@H](CC(C)C)C(=O)N[C@@H](CCCCN)C(=O)O` (H-TTLNSPPLK-OH; N-terminus and C-terminus assumed), the IC50 in assay [2] came out at 9.8 nM.

As to `CC(C)C[C@H](NC(=O)[C@@H](NC(=O)[C@@H](N)[C@@H](C)O)[C@@H](C)O)C(=O)N[C@@H](CC(N)=O)C(=O)N[C@@H](CO)C(=O)N1CCC[C@H]1C(=O)N1CCC[C@H]1C(=O)N[C@@H](CC(C)C)C(=O)N[C@@H](CCCCN)C(=O)N[C@@H](CCCCN)C(=O)O` (H-TTLNSPPLKK-OH; N-terminus and C-terminus assumed), in assay [2], the IC50 was found to be 14.3 nM.

Turning to `CC[C@H](C)[C@H](NC(=O)[C@H](C)NC(=O)[C@H](CS)NC(=O)[C@@H](NC(=O)[C@H](Cc1ccc(O)cc1)NC(=O)[C@@H](N)[C@@H](C)O)[C@@H](C)O)C(=O)N[C@H](C(=O)N[C@H](C(=O)N[C@H](C(=O)N[C@@H](CCCCN)C(=O)O)C(C)C)[C@@H](C)O)[C@@H](C)O` (H-TYTCAITTVK-OH; N-terminus and C-terminus assumed), the half-maximal inhibitory concentration (IC50) in assay [2] came out at 2360 nM.

As to `CC[C@H](C)[C@H](NC(=O)[C@H](Cc1ccc(O)cc1)NC(=O)[C@H](CC(C)C)NC(=O)[C@H](CO)NC(=O)[C@H](CC(N)=O)NC(=O)[C@H](CS)NC(=O)[C@H](CCC(=O)O)NC(=O)[C@H](Cc1c[nH]cn1)NC(=O)[C@H](CC(C)C)NC(=O)[C@@H](N)C(C)C)C(=O)O` (H-VLHECNSLYI-OH; N-terminus and C-terminus assumed), the “Stability (T1/2 (h))” value in assay [1] is recorded as 5.1 h. The figures for the IC50 in assay [2] and in assay [4] were 10500 nM and 10 nM, respectively.

Turning to `CSCC[C@H](NC(=O)[C@@H](N)C(C)C)C(=O)N[C@@H](C)C(=O)NCC(=O)N[C@@H](CC(C)C)C(=O)NCC(=O)N[C@@H](CO)C(=O)N1CCC[C@H]1C(=O)N[C@@H](Cc1ccc(O)cc1)C(=O)N[C@H](C(=O)O)C(C)C` (H-VMAGLGSPYV-OH; N-terminus and C-terminus assumed), the “Stability (T1/2 (h))” value in assay [1] came out at 2.9 h. Besides, the IC50 in assay [2] was determined as 11200 nM; in assay [4], 102 nM.

For `CC(C)C[C@H](NC(=O)[C@H](C)NC(=O)[C@@H]1CCCN1C(=O)[C@@H](NC(=O)[C@H](CCCCN)NC(=O)[C@H](CCCCN)NC(=O)[C@H](CC(C)C)NC(=O)[C@H](CO)NC(=O)[C@@H](N)Cc1c[nH]c2ccccc12)C(C)C)C(=O)N[C@@H](CCCCN)C(=O)O` (H-WSLKKVPALK-OH; N-terminus and C-terminus assumed), the IC50 in assay [2] is 94.9 nM.

Consider `CSCC[C@H](NC(=O)[C@@H](N)Cc1ccc(O)cc1)C(=O)N[C@@H](Cc1ccccc1)C(=O)N[C@@H](CC(C)C)C(=O)N[C@@H](CCCCN)C(=O)N[C@@H](C)C(=O)N[C@@H](CCC(=O)O)C(=O)N[C@@H](CO)C(=O)N[C@@H](CCCCN)C(=O)O` (H-YMFLKAESK-OH; N-terminus and C-terminus assumed), for which the IC50 in assay [2] was 79.8 nM.
